Earlier results on seven substances are cited in paper PMC3974845 (International journal of peptide research and therapeutics, 2013).

The target of the data set is full length Stat3 (SH2 domain) (Homo sapiens, UniProt P40763).
Setting [1] is: affinity for Stat3, Table 1, ref Coleman et al. 2005.
The mark [2] stands for this setting: affinity for Stat3, Table 1, ref Mandal et al. 2009b.
[3] abbreviates: affinity for Stat3, Table 1, ref Mandal et al. 2011.

Like-named read-outs stand apart in the source and are kept apart here. [ ]: non-standard residue; d: D form. pY = N[C@@H](Cc1ccc(OP(=O)(O)O)cc1)C(=O)O

Sequence of full length Stat3 (SH2 domain) (P40763 whole entry, species assumed, the tested form may be a part): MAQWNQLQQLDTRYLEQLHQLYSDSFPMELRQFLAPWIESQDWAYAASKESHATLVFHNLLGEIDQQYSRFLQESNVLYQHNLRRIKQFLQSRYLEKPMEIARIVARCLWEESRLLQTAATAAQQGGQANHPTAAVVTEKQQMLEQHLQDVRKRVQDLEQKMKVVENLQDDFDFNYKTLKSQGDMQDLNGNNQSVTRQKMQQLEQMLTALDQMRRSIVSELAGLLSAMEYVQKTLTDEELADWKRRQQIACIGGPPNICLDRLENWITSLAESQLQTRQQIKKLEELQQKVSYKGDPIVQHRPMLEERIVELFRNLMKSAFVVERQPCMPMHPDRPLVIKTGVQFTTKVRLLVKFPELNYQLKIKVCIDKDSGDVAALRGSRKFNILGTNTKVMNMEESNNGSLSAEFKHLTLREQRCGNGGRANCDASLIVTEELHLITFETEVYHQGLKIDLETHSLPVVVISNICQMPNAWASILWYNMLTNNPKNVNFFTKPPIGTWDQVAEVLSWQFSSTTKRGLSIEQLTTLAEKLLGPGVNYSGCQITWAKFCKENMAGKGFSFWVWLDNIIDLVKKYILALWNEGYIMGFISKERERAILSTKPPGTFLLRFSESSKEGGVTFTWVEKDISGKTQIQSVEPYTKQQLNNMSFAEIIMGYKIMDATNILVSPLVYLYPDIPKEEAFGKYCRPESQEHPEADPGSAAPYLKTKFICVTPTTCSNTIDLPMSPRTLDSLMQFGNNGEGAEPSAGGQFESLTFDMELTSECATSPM

For the substance “Ac-pTyr-Leu-Pro-Gln-Val- NH2 (Ac-[pY]LPQV-NH2; SMILES CC(=O)N[C@@H](Cc1ccc(OP(=O)(O)O)cc1)C(=O)N[C@@H](CC(C)C)C(=O)N1CCC[C@H]1C(=O)N[C@@H](CCC(N)=O)C(=O)N[C@H](C(N)=O)C(C)C) [Compound 11]”, under setting [1], the IC50 is 739 ± 31 nM.
With “Ac-pTyr-Leu-mPro-Gln-Val- NH2 [Compound 12]”, under setting [1], the IC50 was 265 ± 14 nM.
Turning to pCinn-Leu-Pro-Gln-NHBn [Compound 13], under setting [2], the IC50 was 138 ± 8 nM.
Regarding pCinn-Leu-mPro-Gln-NHBn [Compound 14], the IC50 under setting [2] was 68 ± 8 nM.
For the substance βMpCinn-Leu-Pro-Gln- NHBn [Compound 15], the IC50 under setting [3] is 70 ± 15 nM.
Regarding βMpCinn-Leu-mPro-Apa [Compound 18], the half-maximal inhibitory concentration (IC50) under setting [3] was 88 ± 11 nM and the IC50 (βMpCinn-Leu-Xaa-Apa series, fluorescence polarization, ref Mandal et al. 2011) is 88 ± 11 nM.
Turning to “βMpCinn-Leu-mPro-Gln- NHBn [Compound 16]”, the IC50 under setting [3] is 46 ± 5 nM.

For orientation: IC50 means the concentration needed to halve the response being measured.
